The structures appear in SMILES notation.

The first assay concerns the target T1, SAE (Homo sapiens, UniProt Q9UBT2).
T1 construct: endogenous in cells; host or cells: HCT116
T1 sequence (Q9UBT2 1-640): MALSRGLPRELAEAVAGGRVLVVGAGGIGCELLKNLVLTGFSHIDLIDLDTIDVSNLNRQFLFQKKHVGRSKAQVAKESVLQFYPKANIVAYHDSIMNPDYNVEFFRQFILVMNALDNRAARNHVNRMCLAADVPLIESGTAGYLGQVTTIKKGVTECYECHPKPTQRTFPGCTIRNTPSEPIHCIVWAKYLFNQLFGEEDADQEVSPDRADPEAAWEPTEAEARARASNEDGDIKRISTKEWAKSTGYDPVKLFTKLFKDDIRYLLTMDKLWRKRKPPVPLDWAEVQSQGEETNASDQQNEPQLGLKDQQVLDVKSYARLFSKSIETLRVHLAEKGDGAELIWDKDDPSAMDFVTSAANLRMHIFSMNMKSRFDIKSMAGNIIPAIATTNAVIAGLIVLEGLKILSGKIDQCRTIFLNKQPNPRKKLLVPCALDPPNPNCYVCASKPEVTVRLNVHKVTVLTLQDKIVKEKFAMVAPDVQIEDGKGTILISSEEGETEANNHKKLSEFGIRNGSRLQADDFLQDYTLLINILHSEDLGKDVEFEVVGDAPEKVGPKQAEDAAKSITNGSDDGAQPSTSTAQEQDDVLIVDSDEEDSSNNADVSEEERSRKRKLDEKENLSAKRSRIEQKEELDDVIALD
T1 sequence (Q9UBE0 1-346): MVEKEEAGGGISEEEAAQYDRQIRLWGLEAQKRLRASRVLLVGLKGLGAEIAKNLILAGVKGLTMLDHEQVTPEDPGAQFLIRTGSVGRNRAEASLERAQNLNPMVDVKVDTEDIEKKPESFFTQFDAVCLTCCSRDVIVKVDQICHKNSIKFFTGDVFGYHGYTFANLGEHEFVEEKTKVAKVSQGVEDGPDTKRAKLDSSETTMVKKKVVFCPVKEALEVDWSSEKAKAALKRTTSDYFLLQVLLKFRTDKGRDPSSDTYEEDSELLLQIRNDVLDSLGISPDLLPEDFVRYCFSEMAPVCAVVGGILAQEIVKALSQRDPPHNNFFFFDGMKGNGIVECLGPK
Briefly: SUMO IF: in vitro inhibitory activity assay against SAE in HCT116 cells (SUMO-2/3 immunofluorescence). The class given is cell-based. The conditions noted are these: class symbols, 6 h at 37° C. As for the experimental part: Biological Example 1. In Vitro Inhibitory Activity Assay of Compounds of the Present Disclosure Against SAE
HCT116 cells were seeded into a 96-well black transparent bottom plate at about 20000/well with 90 μL per well. The cells were incubated at 37° C. overnight for 24 h. The test compounds were 10-fold diluted to give a final concentration, and 10 μL of the diluted compounds was added to each well of the cell culture plate. The mixture was incubated at 37° C. for 6 h. The cells were then washed gently, the culture medium was discarded, and the cells were washed once with 200 μL of 0.1% PBST. 50 μL of 4% PFA was added to each well, and the cells were immobilized at room temperature for 20 min, and then washed with PBS 2-3 times. 50 μL of 0.2% Triton X-100 was added to each well, and the cells were left to stand at room temperature for 15 min and washed with 0.1% PBST 3 times. 100 μL of 3% BSA (0.6 g BSA+20 mL PBS) was added to each well, and the mixture was blocked at 37° C. for 30 min. After the blocking was completed, the liquid was removed and a primary antibody (SUMO-2/3 (18H8) Rabbit mAb, 1:400 dilution) was prepared with 1% BSA. 30 μL of the diluted primary antibody was added to each well, and the mixture was incubated at 4° C. overnight. The cells were washed 3 times with 200 μL of 0.1% PBST. A FITC secondary antibody (Fluorescein (FITC)-conjugated Affinipure Goat Anti-Rabbit IgG (H+L), 1:300 dilution) was further prepared with 1% BSA, and 40 μL of the diluted secondary antibody was added to each well. The mixture was incubated at room temperature in the dark for 2 h, and then the cells were washed 4 times with 0.1% PBST. The fluorescence signal of the sample was detected and compared to the DMSO group, and the inhibition rate and IC50 were calculated.
Regarding `NS(=O)(=O)OC[C@H]1[C@H](F)[C@@H](Nc2ncncc2C(=O)c2cc3c(s2)CCCC32NCCc3ccc(C4CC4)cc32)C[C@@H]1O` (stereo partly shown) [Compound 107], the IC50 was in the range of 50 to 200 nM.
Consider `CCN1Cc2sc(C(=O)c3cncnc3N[C@H]3C[C@H](O)[C@@H](COS(N)(=O)=O)[C@@H]3F)cc2C2(C1)OCCc1ccc(Cl)cc12` (stereo partly shown) [Compound 729], for which the IC50 is at most 50 nM.
The same measure, in the same setting: then `NS(=O)(=O)OC[C@H]1[C@H](F)[C@@H](Nc2ncncc2C(=O)c2cc3c(s2)CCC[C@@]32NCCc3ccccc32)C[C@@H]1O` [Compound 86], with above 200 nM; and `NS(=O)(=O)OC[C@H]1[C@H](F)[C@@H](Nc2ncncc2C(=O)c2cc3c(s2)CCCC32NCC(=O)c3ccc(Cl)cc32)C[C@@H]1O` (stereo partly shown) [Compound 125], with 50 to 200 nM; and `N#Cc1ccc2c(c1)C1(C=Cc3sc(C(=O)c4cncnc4N[C@H]4C[C@H](O)[C@@H](COS(N)(=O)=O)[C@@H]4F)cc31)OCC2` (stereo partly shown) [Compound 762], with 50 to 200 nM.
The same measure, in the same setting: then `N#Cc1ccc2c(c1)C1(CCCc3sc(C(=O)c4cncnc4N[C@H]4C[C@H](O)[C@@H](COS(N)(=O)=O)[C@@H]4F)cc31)OCC2` (stereo partly shown) [Compound 714], with 50 to 200 nM.
The same measure, in the same setting: the same measure for `CC1Cc2ccc(Cl)cc2[C@@]2(C=Cc3sc(C(=O)c4cncnc4N[C@H]4C[C@H](O)[C@@H](COS(N)(=O)=O)[C@@H]4F)cc32)N1` (stereo partly shown) [Compound 1058]: 50 to 200 nM.
`CC1(C)CNC2(CCCc3sc(C(=O)c4cncnc4N[C@H]4C[C@H](O)[C@@H](COS(N)(=O)=O)[C@@H]4F)cc32)c2cc(Cl)ccc21` (stereo partly shown) [Compound 1026] had an IC50 of 50 to 200 nM.
The same measure, in the same setting: then `NS(=O)(=O)OC[C@H]1[C@H](F)[C@@H](Nc2ncncc2C(=O)c2cc3c(s2)CCC[C@]32NCCc3ccc(Cl)nc32)C[C@@H]1O` [Compound 602], with at most 50 nM; and `NS(=O)(=O)OC[C@H]1[C@H](F)[C@@H](Nc2ncncc2C(=O)c2cc3c(s2)CCC32OCCc3ccc(Cl)cc32)C[C@@H]1O` (stereo partly shown) [Compound 168], with at most 50 nM; and `CCN1Cc2sc(C(=O)c3cncnc3N[C@H]3C[C@H](O)[C@@H](COS(N)(=O)=O)[C@@H]3F)cc2C2(C1)NCCc1ccc(Cl)cc12` (stereo partly shown) [Compound 645], with at most 50 nM.
Same read-out and setting: the same measure for `Cc1sc(C(=O)c2cncnc2N[C@H]2C[C@H](O)[C@@H](COS(N)(=O)=O)[C@@H]2F)cc1[C@H]1OCCc2ccc(Cl)cc21` [Compound 989]: above 200 nM; for `N#Cc1ccc2c(c1)[C@]1(CCc3sc(C(=O)c4cncnc4N[C@H]4C[C@H](O)[C@@H](COS(N)(=O)=O)[C@@H]4F)cc31)NCC2` [Compound 137]: above 200 nM.
Same read-out and setting: then `NS(=O)(=O)OC[C@H]1[C@H](F)[C@@H](Nc2ncncc2C(=O)c2cc3c(s2)COC[C@@]32NCCc3ccc(Cl)c(F)c32)C[C@@H]1O` [Compound 568], with above 200 nM.
On to `CC(C)N1Cc2sc(C(=O)c3cncnc3N[C@H]3C[C@H](O)[C@@H](COS(N)(=O)=O)[C@@H]3F)cc2[C@@]2(C1)OCCc1ccc(F)cc12` [Compound 733], for which the IC50 was above 200 nM.
Still for that read-out and setting: the same measure for `NS(=O)(=O)OC[C@H]1[C@H](F)[C@@H](Nc2ncncc2C(=O)c2cc3c(s2)C=C[C@]32NCCc3ccc(F)cc32)C[C@@H]1O` [Compound 346]: at most 50 nM; for `NS(=O)(=O)OC[C@H]1[C@H](F)[C@@H](Nc2ncncc2C(=O)c2cc3c(s2)C=C[C@]32OCCc3ccccc32)C[C@@H]1O` [Compound 755]: 50 to 200 nM; for `NS(=O)(=O)OC[C@H]1[C@H](F)[C@@H](Nc2ncncc2C(=O)c2cc3c(s2)CN(C2CC2)CC32NCCc3ccc(Cl)cc32)C[C@@H]1O` (stereo partly shown) [Compound 579]: at most 50 nM.
On to `NS(=O)(=O)OC[C@H]1[C@H](F)[C@@H](Nc2ncncc2C(=O)c2cc3c(s2)C=CC32OCCc3ccccc32)C[C@@H]1O` (stereo partly shown) [Compound 753], for which the concentration for half-maximal inhibition (IC50) lay in the range of 50 to 200 nM.
In turn, `CC1(C)Cc2ccc(Cl)cc2[C@]2(CCCc3sc(C(=O)c4cncnc4N[C@H]4C[C@H](O)[C@@H](COS(N)(=O)=O)[C@@H]4F)cc32)N1` [Compound 1030] showed an IC50 above 200 nM.
Same read-out and setting: the same measure for `NS(=O)(=O)OC[C@H]1[C@H](F)[C@@H](Nc2ncncc2C(=O)c2cc3c(s2)CCCC32NCCc3ncc(Cl)cc32)C[C@@H]1O` (stereo partly shown) [Compound 603]: 50 to 200 nM.
On the same count and under the same terms, then `Cc1cc2c(cc1Cl)C1(CCc3sc(C(=O)c4cncnc4N[C@H]4C[C@H](O)[C@@H](COS(N)(=O)=O)[C@@H]4F)cc31)NCC2` (stereo partly shown) [Compound 155], with 50 to 200 nM.
The same measure, in the same setting: then `NS(=O)(=O)OC[C@H]1[C@H](F)[C@@H](Nc2ncncc2C(=O)c2cc3c(s2)CCCC32NC(=O)Cc3ccc(Cl)cc32)C[C@@H]1O` (stereo partly shown) [Compound 627], with above 200 nM; and `NS(=O)(=O)OC[C@H]1[C@H](F)[C@@H](Nc2ncncc2C(=O)c2cc3c(s2)COCC32NCCc3cc(F)c(Cl)cc32)C[C@@H]1O` (stereo partly shown) [Compound 570], with 50 to 200 nM; and `NS(=O)(=O)OC[C@H]1[C@H](F)[C@@H](Nc2ncncc2C(=O)c2cc3c(s2)OC[C@]32NCCc3ccc(F)cc32)C[C@@H]1O` [Compound 144], with 50 to 200 nM.
With `NS(=O)(=O)OC[C@H]1[C@H](F)[C@@H](Nc2ncncc2C(=O)c2cc3c(s2)C=CC32NCCc3ccc(F)cc32)C[C@@H]1O` (stereo partly shown) [Compound 163], the half-maximal inhibitory concentration (IC50) lay within 50 to 200 nM.
Still for that read-out and setting: the same measure for `CCc1sc(C(=O)c2cncnc2N[C@H]2C[C@H](O)[C@@H](COS(N)(=O)=O)[C@@H]2F)cc1C1NCCc2ccc(Cl)cc21` (stereo partly shown) [Compound 260]: 50 to 200 nM.
The same measure, in the same setting: then `NS(=O)(=O)OC[C@H]1[C@H](F)[C@@H](Nc2ncncc2C(=O)c2cc3c(s2)CCC[C@]32NCCc3ncc(Cl)cc32)C[C@@H]1O` [Compound 605], with at most 50 nM.
The same measure, in the same setting: then `CCN1Cc2sc(C(=O)c3cncnc3N[C@H]3C[C@H](O)[C@@H](COS(N)(=O)=O)[C@@H]3F)cc2[C@]2(C1)OCCc1ccc(Cl)cc12` [Compound 731], with at most 50 nM; and `NS(=O)(=O)OC[C@H]1[C@H](F)[C@@H](Nc2ncncc2C(=O)c2cc3c(s2)CCC[C@]32NC(=O)Cc3ccc(Cl)cc32)C[C@@H]1O` [Compound 629], with above 200 nM; and `COc1sc(C(=O)c2cncnc2N[C@H]2C[C@H](O)[C@@H](COS(N)(=O)=O)[C@@H]2F)cc1C1NCCc2ccc(Cl)cc21` (stereo partly shown) [Compound 262], with 50 to 200 nM.
In turn, `NS(=O)(=O)OC[C@H]1[C@H](F)[C@@H](Nc2ncncc2C(=O)c2cc3c(s2)CCCC32NCCc3ccc(C(F)(F)F)cc32)C[C@@H]1O` (stereo partly shown) [Compound 109] came in with an IC50 of 50 to 200 nM.
As for `NS(=O)(=O)OC[C@H]1[C@H](F)[C@@H](Nc2ncncc2C(=O)c2cc3c(s2)C=CCC32NCCc3ccc(Cl)cc32)C[C@@H]1O` (stereo partly shown) [Compound 120], the IC50 was at most 50 nM.
Still for that read-out and setting: then `NS(=O)(=O)OC[C@H]1[C@H](F)[C@@H](Nc2ncncc2C(=O)c2nc3c(s2)COC[C@]32NCCc3ccc(Cl)cc32)C[C@@H]1O` [Compound 590], with above 200 nM.

The assay is the same for the next values; noted with them: numeric values, 6 h at 37° C.
With `NS(=O)(=O)OC[C@H]1[C@H](F)[C@@H](Nc2ncncc2C(=O)c2cc3c(s2)CCC[C@@]32NCCc3ccc(F)cc32)C[C@@H]1O` [Compound 92], the half-maximal inhibitory concentration (IC50) was above 1000 nM.
The same measure, in the same setting: the same measure for `CC(C)N1Cc2sc(C(=O)c3cncnc3N[C@H]3C[C@H](O)[C@@H](COS(N)(=O)=O)[C@@H]3F)cc2[C@]2(C1)NCCc1ccc(Cl)cc12` [Compound 650]: 21.7 nM; for `NS(=O)(=O)OC[C@H]1[C@H](F)[C@@H](Nc2ncncc2C(=O)c2cc3c(s2)COC[C@@]32NCCc3ccc(Cl)cc32)C[C@@H]1O` [Compound 104]: above 1000 nM.

Values taken from patent US20260297109A1, “COMPOUNDS AS SUMO ACTIVATING ENZYME INHIBITORS” (WIGEN BIOMEDICINE TECHNOLOGY (SHANGHAI) CO., LTD., priority 2022, published 2026).
